Data published in patent publication US20040023910A1, “Use of cyr61 in the treatment and diagnosis of human uterine leiomyomas” (priority 2003, published 2004).

What was measured:
[1] = system: Cyr61 in leiomyoma tissues; assay: Ex vivo treatment of leiomyoma explants with sex steroids and growth factors, Cyr61 mRNA by Northern blotting; type: cell-based, human; conditions: leiomyoma explants ex vivo (n=8), 10 nM E2 or 10 ng/ml bFGF, 1 h
Description: (§1) Study subjects and tissue procurement Uterine leiomyomas and matched myometrial specimens were obtained according to protocols approved by the Institutional Review Boards following routine hysterectomy at the Department of Obstetrics and Gynecology, Pennsylvania Hospital. Tissue samples were provided from patients between the ages of 38 to 53 (median age=45) who were not on hormone replacement therapy nor prescribed gonadotropin releasing hormone agonists (n=38). All but one patient had experienced normal menstrual cycles prior to surgery. Tissue specimens were immediately frozen in liquid nitrogen following hysterectomies for total RNA isolation or fixed in 10% neutral-buffered formalin for in situ hybridization. Tissues for ex vivo culturing were placed in phenol-red free DMEM/Ham's F12 media (Gibco BRL, Rockville, Md.) containing 100 U/ml penicillin, […], and 250 ng/ml amphotericine B as a fungizone and transported on ice.
Northern blotting for Cyr61 and ER a Total cellular RNA was isolated from myometrial and leiomyoma tissue homogenates by guanidium isothiocynate lysis followed by phenol/chloroform extraction. Subsequently, total cellular RNA (20 μg) was subjected to electrophoresis in a 1% agarose gel containing 1 M formaldehyde. […]

[2] = system: Cyr61 in murine and human fibroblasts; conditions: Nathans et al. 1988; cited from earlier work
[3] = system: Cyr61 transcript levels in myometrial tissue; assay: Ex vivo treatment of myometrial explants with sex steroids and growth factors, Cyr61 mRNA by Northern blotting; type: cell-based, human
Description: as §1
Northern blotting for Cyr61 and ER a Total cellular RNA was isolated from myometrial and leiomyoma tissue homogenates by guanidium isothiocynate lysis followed by phenol/chloroform extraction. Subsequently, total cellular RNA (20 μg) was subjected to electrophoresis in a 1% agarose gel containing 1 M formaldehyde. Separated RNA transcripts were transferred onto nylon membranes by […] and subsequently prehybridized at 60° C. in RapidHyb hybridization solution (Amersham, Arlington Heights, Ill.). A 0.41 kb human Cyr61 cDNA fragment was radiolabeled with [α-^32P]-dCTP (3,000 Ci/mmol) using the random-primer technique (Rediprime II, Amersham) and used as the hybridization probe. The radiolabeled probe (1×10^6 cpm/ml) was hybridized to membranes for 4 h at 60° C. Membranes were washed twice in 1×SSPE (0.15 M NaCl, […], and 0.01 M sodium phosphate, pH 7.4) and 0.1% SDS for 15 min at 25° C., followed by a final wash in 0.1×SSPE and 0.1% SDS for 5 min at 60° C. For estrogen receptor α (ERα) expression, membranes were reprobed with a 1.96 kb human ERα cDNA (1.96 kb full length coding region) that was radiolabeled with [α-^32P]-dCTP (3,000 Ci/mmol), hybridized and washed as described above. Relative levels of Cyr61 were normalized to glyceraldehyde-3-phosphate dehydrogenase (GAPDH) after reprobing membranes with a ^32P-radiolabeled oligonucleotide according to manufacturers protocol (endlabeling kit, GibcoBRL, Rockville, Md.).
Tissue treatment with sex steroids and growth factors Tissue specimens obtained as described above were immediately minced into 1-2 mm pieces using sterilized scalpels and forceps and placed in phenol-red free DMEM/Ham's F12 containing antifingal and antibiotic agents only. […]

**Q.** Which “upregulation of Cyr61 in leiomyoma tissues” value [1] does the source give for “bFGF: basic fibroblast growth factor, purchased from R & D Systems, Inc.” here?
**A.** The value was “neither E2 nor bFGF was able to upregulate Cyr61”.

**Q.** What about the “induction of Cyr61” value [2] of the same compound?
**A.** The value was “induces Cyr61”.

**Q.** Which results are given for `C[C@]12CC[C@@H]3c4ccc(O)cc4CC[C@H]3[C@@H]1CC[C@@H]2O` [E2, 17β-estradiol]?
**A.** upregulation of Cyr61 in leiomyoma tissues [1]: neither E2 nor bFGF was able to upregulate Cyr61; increase in Cyr61 transcript levels ([3]; myometrial explants ex vivo (n=8), 1 h, 10 nM E2, 10 ng/ml bFGF or serum, normalized to GAPDH): greater than 2 fold

**Q.** What does the source list for `CCC(=O)[C@@]1(C)CC[C@H]2[C@@H]3CCC4=CC(=O)CCC4=C3CC[C@@]21C` [R5020]?
**A.** effect on Cyr61 expression ([3]; myometrial explants ex vivo, 10 nM R5020, 1 h): no effect on Cyr61 expression; synergy with E2 on Cyr61 expression ([3]; myometrial explants ex vivo, combination of 10 nM E2 and 10 nM R5020, 1 h): nor did it synergize with E2

**Q.** With `C[C@]12CC[C@@H]3c4ccc(O)cc4C[C@@H](CCCCCCCCC[S+]([O-])CCCC(F)(F)C(F)(F)F)[C@H]3[C@@H]1CC[C@@H]2O` (stereo partly shown) [ICI 182,780] as the compound, how does the “inhibition of E2 mediated induction of Cyr61” value ([3]; myometrial explants ex vivo, combination of 10 nM E2 and 1 μM ICI 182,780, 1 h) read?
**A.** The value was “completely inhibited”.
